Data reported in US20120302577A1 (AB SCIENCE, priority 2010, published 2012).
Structures can show the parent of a compound that is named as a salt.

Experiments:
[1] = test system: imatinib-resistant HMC-1α155 cells; experiment: Apoptosis assay by Propidium Iodide staining on imatinib-resistant cells; assay type: cell-based, human; details: imatinib-resistant HMC-1α155 cells exposed to 1 μM
Protocol: HMC-1 is a human mast cell line derived from a patient with mast cell leukaemia. The cell line used in this study, HMC-1α155, is a clone derived from the original population expressing endogenous Kit bearing the mutation Val 560 to Gly. […] The medium used in this case was a RPMI medium containing L-glutamine (Cambrex cat#12-702F) supplemented with 100 U/mL penicillin and 100 μg/mL streptomycin (Cambrex 100× penicilline/streptomycine mixture cat #17-602E), and with 10% v/v foetal calf serum (AbCys Lot S02823S1800) which has been previously heat-inactivated 30 minutes at 56° C. (RPMI 10). The medium containing the drugs was replaced with fresh one every 3-4 days. […] The principle behind the method for apoptosis assay by Propidium Iodide Staining (PI staining) is as follows: during apoptosis, DNA breakup causes small fragments of DNA to be free in the nucleus. Following appropriate elution with citrate buffer, these fragments are lost from the nucleus. As these cells now have a lower DNA content, subsequent staining with a DNA binding dye will reveal these cells in the sub-G1 region.

[2] = test system: patients with advanced GIST; experiment: Phase 2 clinical trial, response rate according to RECIST (CT); assay type: in vivo, human; details: 2 months (N = 30)
Description: Methods; Patients: Patients enrolled in this study were aged over 18 years with inoperable, non-pretreated, histologically proven locally advanced or metastatic, c-Kit positive GIST. […] Exclusion criteria included: inadequate organ function defined via blood tests, severe liver or cardiac failure, and severe neurological or psychiatric disorders. Patients receiving a concomitant treatment within 4 weeks before inclusion, and pregnant or lactating women were also excluded. […] Methods; Statistical analyses: Simon […] two-stage design was used for this prospective, multicenter, single-group, phase II trial. Fourteen patients were initially enrolled, with recruitment of an additional ten patients being dependent on the occurrence of at least one objective RECIST response. This population was further extended to a total of 30 patients to ensure a sufficient evaluable population for all end-points; the type I(α) error was 5% (two-sided) for all analyses. Quantitative variables were described by the number of filled and missing data, mean, standard deviation, median, minimum and maximum. Qualitative variables were described by the number of missing data and, for each modality, frequency and percentage (referring to filled data). Time-to-event data were described using Kaplan-Meier (KM) estimates. The median was provided with its 95% confidence interval (95% CI). […]

[3] = test system: patients with advanced GIST; experiment: Phase 2 clinical trial, metabolic response (FDG-PET); assay type: in vivo, human; details: At 1 month (N = 13)
Description: (§1) Methods; Patients: Patients enrolled in this study were aged over 18 years with inoperable, non-pretreated, histologically proven locally advanced or metastatic, c-Kit positive GIST. […] Exclusion criteria included: inadequate organ function defined via blood tests, severe liver or cardiac failure, and severe neurological or psychiatric disorders. Patients receiving a concomitant treatment within 4 weeks before inclusion, and pregnant or lactating women were also excluded.

[4] = test system: patients with advanced GIST; experiment: Phase 2 clinical trial, time-to-event analysis (PFS, OS); assay type: in vivo, human
Description: Methods; Patients: Patients enrolled in this study were aged over 18 years with inoperable, non-pretreated, histologically proven locally advanced or metastatic, c-Kit positive GIST. […] Exclusion criteria included: inadequate organ function defined via blood tests, severe liver or cardiac failure, and severe neurological or psychiatric disorders. Patients receiving a concomitant treatment within 4 weeks before inclusion, and pregnant or lactating women were also excluded. […] Time-to-event analyses were calculated from the date of first masitinib intake to the date of event (documented progression or death). Patients who had not progressed at the date of last tumor assessment were censored at that date for PFS. Patients alive at the time of the analysis were censored at the date of last contact for OS. Methods; Statistical analyses: Simon […] two-stage design was used for this prospective, multicenter, single-group, phase II trial. Fourteen patients were initially enrolled, with recruitment of an additional ten patients being dependent on the occurrence of at least one objective RECIST response. This population was further extended to a total of 30 patients to ensure a sufficient evaluable population for all end-points; the type I(α) error was 5% (two-sided) for all analyses. Quantitative variables were described by the number of filled and missing data, mean, standard deviation, median, minimum and maximum. Qualitative variables were described by the number of missing data and, for each modality, frequency and percentage (referring to filled data). Time-to-event data were described using Kaplan-Meier (KM) estimates. The median was provided with its 95% confidence interval (95% CI). PFS rates were given every 6 months with KM estimates. All data analyses and reporting procedures used SAS v9.1 in a Windows XP operating system environment.

[5] = test system: patients with advanced GIST; experiment: Phase 2 clinical trial, safety assessment (adverse events, NCI CTCAE v3.0); assay type: in vivo, human; details: for Abdominal Pain / Abdominal Pain Upper / Anaemia / Asthenia / Diarrhoea / Dry Skin / Erythema / Eye Oedema / Eyelid Oedema / Lacrimation Increased / Mucosal Inflammation / Muscle Spasms / Myalgia / Nausea / Neutropenia / Oedema Peripheral / Pruritus / Rash / Vomiting: N = 30
Description: as §1, with “excluded. […] All adverse events (AEs), including abnormal serology or haematology, were recorded regardless of causality.” for “excluded.”

[6] = test system: patients with advanced GIST; details: after 2 months of masitinib; cited from earlier work
[7] = test system: patients with GIST; details: initial dose 400 mg/day, 345 patients; cited from earlier work
[8] = test system: patients with advanced GIST; details: cited from earlier work

SMILES: Cc1ccc(NC(=O)c2ccc(CN3CCN(C)CC3)cc2)cc1Nc1nc(-c2cccnc2)cs1 [masitinib, 4-(4-methylpiperazin-1-ylmethyl)-N-[4-methyl-3-(4-pyridin-3-ylthiazol-2-ylamino)phenyl]benzamide-mesylate methane sulfonic acid salt]
- % apoptosis (cells in apoptosis with respect to overall cells) [1]: More than 45%
- Response (RECIST) CR + PR + SD (disease control rate), % [2]: (96.7%) [82.8; 99.9]
- Response (RECIST) CR, % ([2]; 7.5 mg/kg/day oral): (0.0%)
- Metabolic response CMR + PMR (metabolic response rate), % [3]: (69.2%)
- Metabolic response CMR, % [3]: (0.0%)
- OS rates (%) [95% CI] ([4]; 12 months): 96.7%
- PFS rate (%) [95% CI] ([4]; 24 months): 60%
- PFS rate (%) [95% CI] ([4]; 36 months): 55%
- Abdominal Pain ([5]; All causalities, All grades): 16 (53.3%) Number (%) of patients
- Abdominal Pain Upper ([5]; All causalities, All grades): 9 (30.0%) Number (%) of patients
- Anaemia ([5]; All causalities, All grades): 6 (20.0%) Number (%) of patients
- Asthenia ([5]; All causalities, All grades): 27 (90.0%) Number (%) of patients
- Diarrhoea ([5]; All causalities, All grades): 18 (60.0%) Number (%) of patients
- Dry Skin ([5]; All causalities, All grades): 4 (13.3%) Number (%) of patients
- Erythema ([5]; All causalities, All grades): 6 (20.0%) Number (%) of patients
- Eye Oedema ([5]; All causalities, All grades): 14 (46.7%) Number (%) of patients
- Eyelid Oedema ([5]; All causalities, All grades): 7 (23.3%) Number (%) of patients
- Lacrimation Increased ([5]; All causalities, All grades): 4 (13.3%) Number (%) of patients
- Mucosal Inflammation ([5]; All causalities, All grades): 5 (16.7%) Number (%) of patients
- Muscle Spasms ([5]; All causalities, All grades): 12 (40.0%) Number (%) of patients
- Myalgia ([5]; All causalities, All grades): 4 (13.3%) Number (%) of patients
- Nausea ([5]; All causalities, All grades): 15 (50.0%) Number (%) of patients
- Neutropenia ([5]; All causalities, All grades): 5 (16.7%) Number (%) of patients
- Oedema Peripheral ([5]; All causalities, All grades): 8 (26.7%) Number (%) of patients
- Pruritus ([5]; All causalities, All grades): 11 (36.7%) Number (%) of patients
- Rash ([5]; All causalities, All grades): 12 (40.0%) Number (%) of patients
- Vomiting ([5]; All causalities, All grades): 10 (33.3%) Number (%) of patients
- Abdominal Pain ([5]; All causalities, G3 + G4): 2 (6.7%) Number (%) of patients
- Anaemia ([5]; All causalities, G3 + G4): 1 (3.3%) Number (%) of patients
- Asthenia ([5]; All causalities, G3 + G4): 1 (3.3%) Number (%) of patients
- Diarrhoea ([5]; All causalities, G3 + G4): 1 (3.3%) Number (%) of patients
- Eye Oedema ([5]; All causalities, G3 + G4): 1 (3.3%) Number (%) of patients
- Mucosal Inflammation ([5]; All causalities, G3 + G4): 1 (3.3%) Number (%) of patients
- Neutropenia ([5]; All causalities, G3 + G4): 2 (6.7%) Number (%) of patients
- Pruritus ([5]; All causalities, G3 + G4): 1 (3.3%) Number (%) of patients
- Rash ([5]; All causalities, G3 + G4): 3 (10.0%) Number (%) of patients
- Patients reporting at least one treatment-related AE ([5]; ITT N = 30): All patients
- Treatment-related toxicity per patient: abdominal pain ([5]; ITT N = 30): 33%
- Treatment-related toxicity per patient: asthenia ([5]; ITT N = 30): 83%
- Treatment-related toxicity per patient: cutaneous rash ([5]; ITT N = 30): 40%
- Treatment-related toxicity per patient: diarrhoea ([5]; ITT N = 30): 57%
- Treatment-related toxicity per patient: eye oedema ([5]; ITT N = 30): 47%
- Treatment-related toxicity per patient: muscle spasms ([5]; ITT N = 30): 40%
- Treatment-related toxicity per patient: nausea ([5]; ITT N = 30): 47%
- Treatment-related toxicity per patient: peripheral oedema ([5]; ITT N = 30): 20%
- Treatment-related toxicity per patient: pruritus ([5]; ITT N = 30): 33%
- Treatment-related toxicity per patient: upper abdominal pain ([5]; ITT N = 30): 23%
- Treatment-related toxicity per patient: vomiting ([5]; ITT N = 30): 23%
- Abdominal Pain ([5]; Suspected, All grades): 10 (33.3%) Number (%) of patients
- Abdominal Pain Upper ([5]; Suspected, All grades): 7 (23.3%) Number (%) of patients
- Anaemia ([5]; Suspected, All grades): 4 (13.3%) Number (%) of patients
- Asthenia ([5]; Suspected, All grades): 25 (83.3%) Number (%) of patients
- Diarrhoea ([5]; Suspected, All grades): 17 (56.7%) Number (%) of patients
- Dry Skin ([5]; Suspected, All grades): 4 (13.3%) Number (%) of patients
- Erythema ([5]; Suspected, All grades): 5 (16.7%) Number (%) of patients
- Eye Oedema ([5]; Suspected, All grades): 14 (46.7%) Number (%) of patients
- Eyelid Oedema ([5]; Suspected, All grades): 7 (23.3%) Number (%) of patients
- Lacrimation Increased ([5]; Suspected, All grades): 4 (13.3%) Number (%) of patients
- Mucosal Inflammation ([5]; Suspected, All grades): 5 (16.7%) Number (%) of patients
- Muscle Spasms ([5]; Suspected, All grades): 12 (40.0%) Number (%) of patients
- Myalgia ([5]; Suspected, All grades): 4 (13.3%) Number (%) of patients
- Nausea ([5]; Suspected, All grades): 14 (46.7%) Number (%) of patients
- Neutropenia ([5]; Suspected, All grades): 5 (16.7%) Number (%) of patients
- Oedema Peripheral ([5]; Suspected, All grades): 6 (20.0%) Number (%) of patients
- Pruritus ([5]; Suspected, All grades): 10 (33.3%) Number (%) of patients
- Rash ([5]; Suspected, All grades): 12 (40.0%) Number (%) of patients
- Vomiting ([5]; Suspected, All grades): 7 (23.3%) Number (%) of patients
- Abdominal Pain ([5]; Suspected, G3 + G4): 1 (3.3%) Number (%) of patients
- Anaemia ([5]; Suspected, G3 + G4): 1 (3.3%) Number (%) of patients
- Asthenia ([5]; Suspected, G3 + G4): 1 (3.3%) Number (%) of patients
- Diarrhoea ([5]; Suspected, G3 + G4): 1 (3.3%) Number (%) of patients
- Eye Oedema ([5]; Suspected, G3 + G4): 1 (3.3%) Number (%) of patients
- Mucosal Inflammation ([5]; Suspected, G3 + G4): 1 (3.3%) Number (%) of patients
- Neutropenia ([5]; Suspected, G3 + G4): 2 (6.7%) Number (%) of patients
- Pruritus ([5]; Suspected, G3 + G4): 1 (3.3%) Number (%) of patients
- Rash ([5]; Suspected, G3 + G4): 3 (10.0%) Number (%) of patients
- Cardiac side-effects ([5]; to date): no cardiac side-effects have been observed
- Patients with tumour response assessed with DCE-US [6]: 75%

SMILES: Cc1ccc(NC(=O)c2ccc(CN3CCN(C)CC3)cc2)cc1Nc1nccc(-c2cccnc2)n1 [imatinib]
- 2-year PFS rate [7]: 46%
- 2-year survival [7]: 72%
- 3-year survival [7]: ~61%
- Median PFS [7]: 18 months
- Median overall survival (OS) [7]: 55 months
- 2-year survival rate of patients with advanced GIST ([8]; after introduction of imatinib (pre-imatinib 25%)): about 70%
- Patients with early resistance (progression within first 6 months, no response) ([8]; in vivo): 10-15%
